# According to patent publication US20240360113A1, “AMINOARYL-INTEGRIN AGONISTS COMPOUNDS” (Texas Heart Institute, priority 2021, published 2024):
# Columns and labels:
# α4β1/VCAM-1 = biological target: T1, α4β1/VCAM-1 (Homo sapiens, UniProt P05556+P13612); experiment: Static cell adhesion assay, Jurkat cells on VCAM-1 (VLA-4 agonist activity); assay type: cell-based; conditions: EC50 relative to THI0349 (average 11 uM) run on the same plate; Jurkat cells, 50% FBS
# T1 construct: The Jurkat (VCAM-1 assays) and HSB (ICAM-1 assays) cell lines were obtained from American Type Culture Collection; endogenous in cells; host or cells: Jurkat (ATCC)
# Method in brief: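 Calcein-labelled Jurkat cells (2×10^5/well) were added to wells coated with a sub-optimal level of human VCAM-1 (0.5 μg/mL) in PBS, 1 mM MgCl2, 50% FBS with compound in 1% DMSO. After 30 min at 37° C. and washing, adherent-cell fluorescence was read. EC50 was the concentration giving 50% of maximal response.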
# αLβ2/ICAM-1 = biological target: T2, αLβ2/ICAM-1 (Homo sapiens, UniProt P05107+P20701); experiment: Static cell adhesion assay, HSB cells on ICAM-1 (LFA-1; LAD); assay type: cell-based; conditions: RFU of compound / RFU of THI0349, both at the same concentration
# T2 construct: The Jurkat (VCAM-1 assays) and HSB (ICAM-1 assays) cell lines were obtained from American Type Culture Collection; endogenous in cells; host or cells: HSB (ATCC)
# Method in brief: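 HSB cells were labeled with calcein-AM for 30 minutes, washed, resuspended in binding buffer (PBS with 2 mM MgCl2, 5 mM EGTA, 50% FBS) and plated at 2×10^5 cells/well in triplicate onto 96-well plates coated overnight at 4° C with ICAM-1 (5 μg/mL in 50 μL TBS) and blocked with 2% BSA. Compounds were tested in 1% DMSO. After 30 minutes at 37° C and three washes, adherent cells were lysed and fluorescence was read; results are compound RFU divided by THI0349 RFU.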
# T1 sequence (P13612 34-1032): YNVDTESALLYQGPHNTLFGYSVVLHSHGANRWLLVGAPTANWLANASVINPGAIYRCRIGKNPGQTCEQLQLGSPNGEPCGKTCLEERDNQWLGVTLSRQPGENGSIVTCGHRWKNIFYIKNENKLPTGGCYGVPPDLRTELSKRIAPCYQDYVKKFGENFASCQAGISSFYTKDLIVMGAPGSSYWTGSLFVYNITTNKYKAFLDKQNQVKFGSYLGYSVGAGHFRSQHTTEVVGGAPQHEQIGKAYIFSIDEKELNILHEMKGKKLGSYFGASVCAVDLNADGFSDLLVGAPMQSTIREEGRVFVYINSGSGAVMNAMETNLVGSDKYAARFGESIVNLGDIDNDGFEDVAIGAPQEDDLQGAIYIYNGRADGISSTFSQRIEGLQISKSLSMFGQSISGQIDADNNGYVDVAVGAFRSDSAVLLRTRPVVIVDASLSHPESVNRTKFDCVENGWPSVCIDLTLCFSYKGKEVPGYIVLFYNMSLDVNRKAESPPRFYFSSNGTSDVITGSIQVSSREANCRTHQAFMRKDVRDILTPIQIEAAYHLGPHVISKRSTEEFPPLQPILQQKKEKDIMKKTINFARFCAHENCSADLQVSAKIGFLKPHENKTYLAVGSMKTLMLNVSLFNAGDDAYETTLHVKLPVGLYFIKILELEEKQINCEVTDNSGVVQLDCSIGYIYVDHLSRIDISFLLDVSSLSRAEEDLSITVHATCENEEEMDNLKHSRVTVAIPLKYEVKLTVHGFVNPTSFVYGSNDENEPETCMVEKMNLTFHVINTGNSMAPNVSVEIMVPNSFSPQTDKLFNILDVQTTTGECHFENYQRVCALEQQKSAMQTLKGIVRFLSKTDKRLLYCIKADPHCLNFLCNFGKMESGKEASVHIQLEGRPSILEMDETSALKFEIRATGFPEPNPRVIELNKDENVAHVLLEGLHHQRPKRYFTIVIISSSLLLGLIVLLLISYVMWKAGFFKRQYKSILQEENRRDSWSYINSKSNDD
# T1 sequence (P05556 21-798): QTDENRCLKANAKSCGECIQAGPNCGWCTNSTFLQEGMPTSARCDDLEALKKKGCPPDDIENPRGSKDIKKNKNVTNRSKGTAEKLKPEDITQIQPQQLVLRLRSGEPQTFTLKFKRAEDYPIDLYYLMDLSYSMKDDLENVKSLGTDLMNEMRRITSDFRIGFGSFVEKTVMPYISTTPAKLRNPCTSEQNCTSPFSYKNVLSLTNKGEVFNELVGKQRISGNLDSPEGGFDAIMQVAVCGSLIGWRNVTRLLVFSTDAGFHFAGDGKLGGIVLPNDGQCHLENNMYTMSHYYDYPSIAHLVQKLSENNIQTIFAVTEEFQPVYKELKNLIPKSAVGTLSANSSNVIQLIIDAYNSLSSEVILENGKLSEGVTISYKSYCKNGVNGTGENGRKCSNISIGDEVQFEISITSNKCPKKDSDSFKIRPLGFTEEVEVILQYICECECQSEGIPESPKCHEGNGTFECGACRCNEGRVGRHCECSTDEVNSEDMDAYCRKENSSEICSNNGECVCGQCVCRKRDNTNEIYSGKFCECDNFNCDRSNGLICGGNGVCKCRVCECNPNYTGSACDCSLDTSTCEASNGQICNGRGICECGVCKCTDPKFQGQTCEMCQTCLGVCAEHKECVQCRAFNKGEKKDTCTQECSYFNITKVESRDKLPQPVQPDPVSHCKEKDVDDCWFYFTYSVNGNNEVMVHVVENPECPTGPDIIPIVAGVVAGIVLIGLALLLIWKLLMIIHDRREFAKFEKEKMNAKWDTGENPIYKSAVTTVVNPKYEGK
# T2 sequence (P20701 26-1170): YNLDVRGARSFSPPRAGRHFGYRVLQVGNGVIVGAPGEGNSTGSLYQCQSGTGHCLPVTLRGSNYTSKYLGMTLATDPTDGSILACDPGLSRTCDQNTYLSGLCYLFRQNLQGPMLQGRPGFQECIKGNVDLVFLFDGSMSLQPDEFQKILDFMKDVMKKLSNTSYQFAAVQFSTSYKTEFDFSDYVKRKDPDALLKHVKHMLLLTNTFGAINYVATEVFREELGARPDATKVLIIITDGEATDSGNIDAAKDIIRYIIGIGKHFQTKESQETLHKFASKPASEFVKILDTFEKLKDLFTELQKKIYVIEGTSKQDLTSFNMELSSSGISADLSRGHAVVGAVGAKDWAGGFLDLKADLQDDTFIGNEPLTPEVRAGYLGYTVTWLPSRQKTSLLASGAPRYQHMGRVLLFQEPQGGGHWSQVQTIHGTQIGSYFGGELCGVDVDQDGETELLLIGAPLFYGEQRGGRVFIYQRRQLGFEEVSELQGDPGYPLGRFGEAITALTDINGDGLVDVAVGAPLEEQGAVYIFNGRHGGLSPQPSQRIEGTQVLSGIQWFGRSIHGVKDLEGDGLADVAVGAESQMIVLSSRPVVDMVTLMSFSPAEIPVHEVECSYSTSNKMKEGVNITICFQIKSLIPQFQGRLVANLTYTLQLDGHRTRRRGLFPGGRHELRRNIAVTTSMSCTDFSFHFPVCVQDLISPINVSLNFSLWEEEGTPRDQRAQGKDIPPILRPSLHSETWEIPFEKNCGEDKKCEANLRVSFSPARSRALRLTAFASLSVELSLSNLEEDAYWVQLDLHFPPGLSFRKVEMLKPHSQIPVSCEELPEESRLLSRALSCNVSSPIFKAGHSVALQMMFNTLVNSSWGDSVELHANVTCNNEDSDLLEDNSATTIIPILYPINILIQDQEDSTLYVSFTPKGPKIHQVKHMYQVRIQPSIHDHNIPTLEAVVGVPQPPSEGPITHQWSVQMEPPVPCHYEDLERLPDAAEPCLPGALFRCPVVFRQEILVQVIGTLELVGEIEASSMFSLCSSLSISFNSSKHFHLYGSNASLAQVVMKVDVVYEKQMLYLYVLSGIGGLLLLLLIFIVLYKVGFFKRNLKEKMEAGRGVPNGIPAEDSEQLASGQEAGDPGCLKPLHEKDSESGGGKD
# T2 sequence (P05107 23-769): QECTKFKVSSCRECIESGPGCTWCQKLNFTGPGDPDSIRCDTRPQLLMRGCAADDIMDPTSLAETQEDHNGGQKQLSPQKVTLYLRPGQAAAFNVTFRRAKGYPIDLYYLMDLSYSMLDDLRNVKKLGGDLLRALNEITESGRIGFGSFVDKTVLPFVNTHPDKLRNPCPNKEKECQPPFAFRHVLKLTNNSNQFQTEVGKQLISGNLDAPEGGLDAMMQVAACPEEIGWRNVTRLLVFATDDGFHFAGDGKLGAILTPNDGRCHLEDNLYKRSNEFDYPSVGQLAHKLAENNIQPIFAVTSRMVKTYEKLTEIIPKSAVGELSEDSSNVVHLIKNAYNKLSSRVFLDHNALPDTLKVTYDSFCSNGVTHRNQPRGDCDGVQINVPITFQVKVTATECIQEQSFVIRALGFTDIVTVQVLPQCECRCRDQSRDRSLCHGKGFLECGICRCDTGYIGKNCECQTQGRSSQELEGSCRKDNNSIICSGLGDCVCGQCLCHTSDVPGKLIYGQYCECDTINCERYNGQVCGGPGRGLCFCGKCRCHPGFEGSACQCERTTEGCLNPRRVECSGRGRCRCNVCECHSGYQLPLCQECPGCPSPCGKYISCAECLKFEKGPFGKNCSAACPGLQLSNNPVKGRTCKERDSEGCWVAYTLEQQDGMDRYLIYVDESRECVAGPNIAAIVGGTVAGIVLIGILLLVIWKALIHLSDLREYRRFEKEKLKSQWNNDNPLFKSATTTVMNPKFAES
Structure (SMILES),Group against VCAM (α4β1/VCAM-1),LAD Raw Fluorescence Units against LFA-1; Dose 3 µM; Ratio of raw counts Compound/THI0349 (αLβ2/ICAM-1)
"COc1cccc(CN(Cc2ccc(-n3cccn3)cc2)c2nc(CN3CCOCC3)cs2)c1 [Compound 75, N-(4-(1H-pyrazol-1-yl)benzyl)-N-(3-methoxybenzyl)-4-(morpholinomethyl)thiazol-2-amine]",I (Group I maintains at least the same potency or better up to more than twice that of the EC50 of THI0349 ran on the same plate),0.59
"COc1cccc(CN(Cc2cccc(-n3cccn3)c2)c2nc(CN3CCOCC3)cs2)c1 [Compound 80, N-(3-(1H-pyrazol-1-yl)benzyl)-N-(3-methoxybenzyl)-4-(morpholinomethyl)thiazol-2-amine]",I (Group I maintains at least the same potency or better up to more than twice that of the EC50 of THI0349 ran on the same plate),0.53
"COc1cccc(COCc2ccc(N(Cc3cccc(OC)c3)Cc3cccc(OC)c3)cc2)c1 [Compound 89, N,N-bis(3-methoxybenzyl)-4-((3-methoxybenzyloxy)methyl)aniline]",III (Group III more than five times the EC50 of THI0349),0.34
"COc1cccc(CN(Cc2cccc(OC)c2)c2nc(COCCOc3ccc(N(C)C)cc3)cs2)c1 [Compound 51, 4-((2-(4-(dimethylamino)phenoxy)ethoxy)methyl)-N,N-bis(3-methoxybenzyl)thiazol-2-amine]",III (Group III more than five times the EC50 of THI0349),1.3
"COc1cccc(CN(Cc2cccc(OC)c2)c2nc(COCCO)cs2)c1 [Compound 33, 2-((2-(bis(3-methoxybenzyl)amino)thiazol-4-yl)methoxy)ethanol]",III (Group III more than five times the EC50 of THI0349),0.31
"COc1cccc(CN(Cc2cccc(OC)c2)c2nc(COCCOCCOCc3ccccc3C)cs2)c1 [Compound 54, N,N-bis(3-methoxybenzyl)-4-((2-(2-((2-methylbenzyl)oxy)ethoxy)ethoxy)methyl)thiazol-2-amine]",I (Group I maintains at least the same potency or better up to more than twice that of the EC50 of THI0349 ran on the same plate),1.8
"COc1cccc(CN(Cc2cccc(OC)c2)c2nc(CN3CCN(C)CC3)cs2)c1 [Compound 69, N,N-bis(3-methoxybenzyl)-4-((4-methylpiperazin-1-yl)methyl)thiazol-2-amine]",II (Group II is more than twice that of THI0349 but less than five times THI0349's EC50),0.33
"COc1cccc(CN(Cc2cccc(OC)c2)c2nc(COCCOCc3ccccc3C)cs2)c1 [Compound 60, N,N-bis(3-methoxybenzyl)-4-((2-((2-methylbenzyl)oxy)ethoxy)methyl)thiazol-2-amine]",I (Group I maintains at least the same potency or better up to more than twice that of the EC50 of THI0349 ran on the same plate),0.92
"CCOC(=O)c1csc(N(Cc2cccc(OC)c2)Cc2cccc(-n3ccnc3)c2)n1 [Compound 118, ethyl 2-((3-(1H-imidazol-1-yl)benzyl)(3-methoxybenzyl)amino)thiazole-4-carboxylate]",II (Group II is more than twice that of THI0349 but less than five times THI0349's EC50),0.15
"COc1cccc(CN(Cc2ccc(-n3cccn3)cc2)c2nc(C)cs2)c1 [Compound 98, N-(4-(1H-pyrazol-1-yl)benzyl)-N-(3-methoxybenzyl)-4-methylthiazol-2-amine]",III (Group III more than five times the EC50 of THI0349),0.03
"COc1cccc(COCc2csc(N(Cc3ccc(-n4cccn4)cc3)Cc3cccc(OC)c3)n2)c1 [Compound 104, N-(4-(1H-pyrazol-1-yl)benzyl)-N-(3-methoxybenzyl)-4-((3-methoxybenzyloxy)methyl)thiazol-2-amine]",I (Group I maintains at least the same potency or better up to more than twice that of the EC50 of THI0349 ran on the same plate),0.28
"COc1cccc(CN(Cc2cccc(OC)c2)c2nc(COCCOCc3ccccc3Cl)cs2)c1 [Compound 59, 4-((2-((2-chlorobenzyl)oxy)ethoxy)methyl)-N,N-bis(3-methoxybenzyl)thiazol-2-amine]",II (Group II is more than twice that of THI0349 but less than five times THI0349's EC50),1.0
"COc1cccc(CN(Cc2cccc(OC)c2)c2nc(COCCN(C)C)cs2)c1 [Compound 82, 4-((2-(dimethylamino)ethoxy)methyl)-N,N-bis(3-methoxybenzyl)thiazol-2-amine]",II (Group II is more than twice that of THI0349 but less than five times THI0349's EC50),0.05
"COc1ccc(CN(Cc2ccc(OC)cc2)c2nc(COCCOCCOCc3csc(N(Cc4ccc(OC)cc4)Cc4ccc(OC)cc4)n3)cs2)cc1 [Compound 35, 4,4′-(2,2′-oxybis(ethane-2,1-diyl)bis(oxy))bis(methylene)bis(N,N-bis(4-methoxybenzyl)thiazol-2-amine)]",II (Group II is more than twice that of THI0349 but less than five times THI0349's EC50),0.98
"COc1ccc(CN(Cc2ccc(OC)cc2)c2nc(CO)co2)cc1 [Compound 26, (2-(bis(4-methoxybenzyl)amino)oxazol-4-yl)methanol]",I (Group I maintains at least the same potency or better up to more than twice that of the EC50 of THI0349 ran on the same plate),0.79
"CCOC(=O)c1csc(N(Cc2cccc(OC)c2)Cc2ccc3ncccc3c2)n1 [Compound 114, ethyl 2-((3-methoxybenzyl)(quinolin-6-ylmethyl)amino)thiazole-4-carboxylate]",II (Group II is more than twice that of THI0349 but less than five times THI0349's EC50),0.39
"CCOC(=O)c1ccc(N(Cc2cccc(OC)c2)Cc2cccc(OC)c2)nc1 [Compound 95, ethyl 6-(bis(3-methoxybenzyl)amino)nicotinate]",III (Group III more than five times the EC50 of THI0349),0.09
"CCOC(=O)c1csc(N(Cc2cccc(OC)c2)Cc2ccc3[nH]ncc3c2)n1 [Compound 116, ethyl 2-(((1H-indazol-5-yl)methyl)(3-methoxybenzyl)amino)thiazole-4-carboxylate]",III (Group III more than five times the EC50 of THI0349),0.09
"CCOC(=O)c1cnc(N(Cc2cccc(OC)c2)Cc2cccc(OC)c2)nc1 [Compound 96, ethyl 2-(bis(3-methoxybenzyl)amino)pyrimidine-5-carboxylate]",III (Group III more than five times the EC50 of THI0349),0.08
"CCc1nnc(N(Cc2cccc(OC)c2)Cc2cccc(OC)c2)s1 [Compound 94, 5-ethyl-N,N-bis(3-methoxybenzyl)-1,3,4-thiadiazol-2-amine]",III (Group III more than five times the EC50 of THI0349),0.29
"COc1cccc(CN(Cc2cccc(OC)c2)c2nc(COCCOCCN3CCN(C)CC3)cs2)c1 [Compound 63, N,N-bis(3-methoxybenzyl)-4-((2-(2-(4-methylpiperazin-1-yl)ethoxy)ethoxy)methyl)thiazol-2-amine]",III (Group III more than five times the EC50 of THI0349),0.5
"COc1cccc(COc2cccc(N(Cc3cccc(OC)c3)Cc3cccc(OC)c3)c2)c1 [Compound 92, N,N-bis(3-methoxybenzyl)-3-((3-methoxybenzyl)oxy)aniline]",III (Group III more than five times the EC50 of THI0349),0.6
"COc1cccc(CN(Cc2cccc(N3CCOCC3)c2)c2nc(CN3CCOCC3)cs2)c1 [Compound 78, N-(3-methoxybenzyl)-N-(3-morpholinobenzyl)-4-(morpholinomethyl)thiazol-2-amine]",II (Group II is more than twice that of THI0349 but less than five times THI0349's EC50),0.4
"COc1cccc(CN(Cc2cccc(OC)c2)c2nc(COCCOCCOCc3ccccc3Cl)cs2)c1 [Compound 56, 4-((2-(2-((2-chlorobenzyl)oxy)ethoxy)ethoxy)methyl)-N,N-bis(3-methoxybenzyl)thiazol-2-amine]",III (Group III more than five times the EC50 of THI0349),1.2
